In patent US20090215714A1 (priority 2004, published 2009):
“Also recorded” adds a separate entry of the source.

Assays:
Assay type in all cases: in vivo, human
[1] = system: Glu, Gln, GABA and Lac in frontal gray matter (anterior cingulate); test: Single voxel 1H MRS study of brain metabolites in frontal gray matter; settings: for Gray Matter Glu Concentration, Mean / gray matter GABA concentration, Mean / gray matter Gln concentration, Mean / gray matter Lac concentration, Mean: cytidine group n = 19
Protocol: A companion imaging single voxel ^1H MRS study to the behavioral study described in Example 1 examined Glx and Lac changes in frontal gray matter. […] Brain MRS was performed using a 3.0 Tesla GE whole body imaging system (GE VH/i, USA). The localized MR spectra were recorded using a point-resolved spatially localized spectroscopy (PRESS) sequence on a General Electric 3T scanner, which was optimized for acquisition of ^1H MR spectra from the frontal lobe. Voxel size was 1.5×1.5×1.5 cm. The voxels were verified in scout views in T2 images obtained vertically in the Z-axis to include predominantly gray matter of the anterior cingulate for the frontal brain region. The acquisition parameters were: repetition time (TR), 2000 ms; echo time (TE), 35 ms; average=128, phase size-cycling=8, and acquisition time, 4 minutes 16 seconds.

[2] = system: depressive episode in subjects with bipolar disorder I or II (HAM-D score); test: Double-blind clinical trial of cytidine add-on to divalproex; HAM-D scores in bipolar depression
Text: The new methods are based on a double-blind, long-term clinical trial designed to assess the impact of cytidine on patients with bipolar disorder who were undergoing a major depressive episode.
(§1) 65 subjects with either bipolar disorder I or II, as determined by the Structured Clinical Interview for DSM-IV-Patient Version (SCID), were studied during a depressive episode, as determined by a Hamilton Depression Rating Scale (HAM-D) score of 16 or greater. […] HAM-D scores for every subject were evaluated and recorded once a week for twelve weeks following baseline assessment.
The HAM-D scale is a 17-item scale used in the art to assess the severity of depression in patients already diagnosed with an affective disorder. Higher scores indicate more severe depression. Questions posed to subjects relate to symptoms such as depressed mood, guilty feelings, suicide, sleep disturbances, anxiety levels, and weight loss. Hamilton, (1960) J. Neurology and Neurosurgery in Psychiatry, 23:56-62.

[3] = system: treatment emergent mania (YMRS score); test: Treatment-emergent mania/hypomania by Young Mania Rating Scale (YMRS) in the clinical trial
Protocol: as §1
Tohen et al., (2003) Arch. Gen. Psychiatry, 60:1079-88.

[4] = over the 4 week period, p=0.032

Nc1ccn([C@@H]2O[C@H](CO)[C@@H](O)[C@H]2O)c(=O)n1 [cytidine]
Gray Matter Glu Concentration, Mean ([1]; Baseline): 11.38 millimolar | gray matter GABA concentration, Mean ([1]; Baseline): 0.91 millimolar | gray matter Gln concentration, Mean ([1]; Baseline): 7.38 millimolar | gray matter Lac concentration, Mean ([1]; Baseline): 1.71 millimolar | Gray Matter Glu Concentration, Mean ([1]; Week 2): 9.18 millimolar | gray matter GABA concentration, Mean ([1]; Week 2): 0.97 millimolar | gray matter Gln concentration, Mean ([1]; Week 2): 7.21 millimolar | gray matter Lac concentration, Mean ([1]; Week 2): 1.44 millimolar | Gray Matter Glu Concentration, Mean ([1]; Week 4): 8.85 millimolar | gray matter GABA concentration, Mean ([1]; Week 4): 1.03 millimolar | gray matter Gln concentration, Mean ([1]; Week 4): 6.99 millimolar | gray matter Lac concentration, Mean ([1]; Week 4): 1.42 millimolar | decrease in Glu levels ([1]; over the 4-week period, p<0.01): 22.2% | decrease in Gln levels ([1]; over the 4-week period, p=0.241): 5.3% | decrease in Lac levels [1, 4]: 17.0% | increase in GABA levels [1, 4]: 13.2% | affective improvement compared to placebo supplementation (FIG. 1) ([2]; HAM-D, add-on to divalproex, twelve weeks): enhanced the affective improvement | mean difference in HAM-D scores between groups ([2]; cytidine vs placebo, both add-on to divalproex, week 2 through 12, oral cytidine 1 gram/day): 2.66±0.65 | increase in antidepressant efficacy compared to divalproex alone ([2]; oral cytidine added to divalproex, bipolar depression): 10% | subjects with treatment-emergent mania, modified criteria ([3]; YMRS less than 12 at baseline and greater than 12 subsequently, cytidine plus divalproex): no subjects; also recorded: one subject | subjects with treatment-emergent mania ([3]; YMRS less than 15 at baseline and 15 or greater anytime during the study, 12 weeks, cytidine plus divalproex): No subject | subjects with treatment-emergent hypomania ([3]; cutoff of YMRS score of 9, 12-week trial period, vs six on placebo, p=0.041): one subject | subjects with treatment emergent hypomania ([3]; cutoff of YMRS score of 10, cytidine plus divalproex): one subject
